In patent US6818407B2, “Anti-endotoxic antimicrobial cationic peptides and methods of use therfor” (priority 1998, dated 2004):
Ends that are not written are not given here.

How the values were obtained:
[1] = tested on: β-lactamase derepressed mutant (H547) of P. aeruginosa; test: microbe, parasite or virus in culture; format: cell-based; conditions: for (B) MIC of Carb when combined with peptide: Carbenicillin with peptide at concentration (A); for (B) MIC of Carb when combined with peptide / FIC index / MIC A MIC of Peptides / (A) Peptide doses together with Carb: P. aeruginosa H547; for FIC index: peptide + Carbenicillin, about 0.5 or less synergy, 1.0 additivity, >1.0 antagonism; for MIC A MIC of Peptides: peptide alone; for (A) Peptide doses together with Carb: peptide concentration in combination with Carbenicillin
Description: (§1) The biological activity of the peptides can be determined by standard methods known to those of skill in the art, such as Aminimal inhibitory concentration (MIC)≅ assay described in the present examples, whereby the lowest concentration at which no change in OD is observed for a given period of time is recorded as MIC. Alternatively, Afractional inhibitory concentration (FIC)≅ is also useful for determination of synergy between the peptides of the invention, or the peptides in combination with known antibiotics. FICs are performed by checkerboard titrations of peptides in one dimension of a microtiter plate, and of antibiotics in the other dimension, for example. The FIC is calculated by looking at the impact of one antibiotic on the MIC of the other and vice versa. […] Preferably, an FIC of less than 0.5 is obtained for synergism. As used herein, FIC can be determined as follows: [formula]
(§2) To test whether the peptides of the invention synergize with various antibiotics, the following method was employed. Fractional Inhibitory Concentration (FIC) was used to determine synergy of peptides combined with antibiotics (e.g., carbenicillin/ciprofloxacin) against Pseudomonas aeruginosa. The following methodology was followed:
(§3) (1) Determination of MIC of cationic peptides (MIC A):
(§4) 100 μl Mueller Hinton broth (MHB) was added per well
(§5) 12.5 μl of 10× test concentration peptide was added per well to get final peptide concentration of e.g., 128, 64, 32, . . . 0.025 μg/ml from row 1 to 11;
(§6) 10 μl of 10^−4 dilution of overnight bacterial culture was added per well.
(§7) (2) Determination of MIC of Carbenicillin/Ciprofloxacin (MIC B):
(§8) 100 μl MHB was added per well;
(§9) 100 μl of 2× test concentration of antibiotic was added in the first well of the row, and doubling dilutions performed across the plate from column 1 to 11;
(§10) (3) Determination of MIC of antibiotics (B) when combined with peptides at concentration A:
(§11) 100 μl Carbenicillin (512 μg/ml) or Ciprofloxacin (8 μg/ml) was added in each well of column 1; doubling dilutions were performed across the plate;
(§12) 100 μl of the peptide was added in all wells of row 1, mixed, and 100 μl withdrawn and added to row 2, etc., creating a checkerboard titration.
(§13) 10 μl of 10^−4 dilution of overnight culture was added per well;
(§14) plates were incubated at 37EC for 18-24 hours. Combination MIC values A and B were taken as the lowest concentration of drug that reduced bacterial growth by more than 50% in any given column.
(§15) (4) FIC index=FICA+FICB=(A)/MIC A+(B)/MIC B. An FIC index of approximately 0.5 or less indicates synergy; 1.0 reflects additivity; and >1.0 indicates antagonism.

[2] = tested on: Aeromonas salmonicida (As); format: cell-based; conditions: Mueller Hinton Broth
Description: as §1
(§16) These peptides varied in activity (Table 11), however, the C-terminally capped pleurocidin especially and its N-terminally capped lysine derivative had much better activities against a variety of bacteria including Vibrio anguillarum (Va), Aeromonas salmonicida (As), Staphylococcus epidermidis (C621), Salmonella typhimurium wild type (C587) and phoP phoQ mutant (C610), and Pseudomonas aeruginosa wild type (K799) and outer membrane barrier altered (Z61). The antimicrobial peptide CEME, a fusion peptide made from portions of an insect defensin ceropin A and the bee venom peptide melittin (Piers and Hancock, Mol. Microbiol., 12:951-8, 1994), as well as the known antibiotics polymyxin B and gentamicin were used as controls. Replacing the pleurocidin N-terminus with the dermaseptin N-terminus had no effect. Replacing pleurocidin N-terminus with the ceratoxin N-terminus reduced activity. […] Amidating the C-terminus improved antimicrobial activity. Replacing the pleurocidin C-terminus with the misgurin C-terminus had no effect.
(§17) Bacteria included Vibrio anguillarum (Va), Aeromonas salmonicida (As), Staphylococcus epidermidis (C621), Salmonella typhimurium wild type (C587) and phoP phoQ mutant (C6 10), and Pseudomonas aeruginosa wild type (K799) and outer membrane barrier altered (Z61).

[3] = tested on: Pseudomonas aeruginosa outer membrane barrier altered (Z61); format: cell-based; conditions: Mueller Hinton Broth
Description: as §1, §16, §17

[4] = tested on: Pseudomonas aeruginosa wild type (K799); format: cell-based; conditions: Mueller Hinton Broth
Description: as §1, §16, §17

[5] = tested on: Salmonella typhimurium phoP phoQ mutant (C610); format: cell-based; conditions: Mueller Hinton Broth
Description: as §1, §16, §17

[6] = tested on: Salmonella typhimurium wild type (C587); format: cell-based; conditions: Mueller Hinton Broth
Description: as §1, §16, §17

[7] = tested on: Staphylococcus epidermidis (C621); format: cell-based; conditions: Mueller Hinton Broth
Description: as §1, §16, §17

Vibrio anguillarum (Va) = format: cell-based; conditions: Mueller Hinton Broth
Description: as §1, §16, §17

E. coli [8] = test: MIC, broth microdilution assay in polypropylene microtiter trays; format: cell-based; conditions: average of three separate experiments
Description: as §1
(§18) A method which employed polypropylene microtiter trays in a broth microdilution assay was developed.

P. aeruginosa = test: as above; format: cell-based; conditions: average of three separate experiments
Description: as §1, §18

S. aureus K147 = test: as above; format: cell-based; conditions: average of three separate experiments
Description: as §1, §18

S. aureus = test: as above; format: cell-based; conditions: average of three separate experiments
Description: as §1, §18

[9] = tested on: P. aeruginosa efflux mutant (Nal B, H744); test: microbe, parasite or virus in culture; format: cell-based; conditions: for (B) MIC of Nal when combined with peptide: nalidixic acid with peptide at concentration (A); for FIC index: peptide + nalidixic acid; for MIC A MIC of Peptides: peptide alone, P. aeruginosa efflux mutant Nal B, H744 (Table 6); for (A) Peptide doses together with Nal: peptide concentration in combination with nalidixic acid
Description: as §1, §2, §3, §4, §5, §6, §7, §8, §9, §10, §11, §12, §13, §14, §15

[10] = tested on: mutant (Nal B, H744) of P. aeruginosa; test: microbe, parasite or virus in culture; format: cell-based; conditions: for (B) MIC of Cipro when combined with peptide: ciprofloxacin with peptide at concentration (A); for (B) MIC of Cipro when combined with peptide / FIC index / (A) Peptide doses together with Cipro: Nal B, H744; for FIC index: peptide + ciprofloxacin; for MIC A MIC of Peptides: peptide alone, P. aeruginosa mutant Nal B, H744 (Table 5); for (A) Peptide doses together with Cipro: peptide concentration in combination with ciprofloxacin
Description: as §1, §2, §3, §4, §5, §6, §7, §8, §9, §10, §11, §12, §13, §14, §15

[11] = tested on: P. aeruginosa gyrase mutant (Nal A, H374); format: cell-based; conditions: for (B) MIC of Nal when combined with peptide: nalidixic acid with peptide at concentration (A), unit from method; for (B) MIC of Nal when combined with peptide / FIC index / (A) Peptide doses together with Nal: Nal A; for FIC index: peptide + nalidixic acid; for MIC A MIC of Peptides: peptide alone, P. aeruginosa gyrase mutant Nal A; for (A) Peptide doses together with Nal: peptide concentration in combination with nalidixic acid
Description: as §1, §2, §3, §4, §5, §6, §7, §8, §9, §10, §11, §12, §13, §14, §15

E. coli [12] = test: Synergy study (checkerboard titration) with hen white lysozyme; format: cell-based; conditions: for Lowest [CP] showing synergy: cationic peptide concentration, combined with lysozyme; for Lowest [Lyso] showing synergy: lysozyme concentration, combined with the peptide
Description: as §1

P. aeruginosa (H103) = test: as above; format: cell-based; conditions: for Lowest [CP] showing synergy: cationic peptide concentration, combined with lysozyme; for Lowest [Lyso] showing synergy: lysozyme concentration, combined with the peptide
Description: as §1

Salmonella typhi = test: as above; format: cell-based
Description: as §1

[13] = tested on: Pseudomonas aeruginosa strain M2; test: Protection of neutropenic CD-1 mice challenged with Pseudomonas aeruginosa; format: in vivo; set-up: Survival post bacterial challenge, surviving mice: reference not given here; conditions: for Survival (%) post bacterial challenge: PBS 8
Description: CD-1 mice were induced to be neutropenic via 3 intraperitoneal injections of cyclophosphamide ([…]) every another day. Immediately after the third administration of cyclophosphamide, the mice were challenged by intraperitoneal injection of Pseudomonas aeruginosa strain M2 (200-300 organisms/mouse). Cationic peptides (200 µg per mouse=8 mg/kg) in 100 µl buffered citrate were injected intraperitoneally at 30 min (single dose) or 30 min and 16 hrs (double dose) post bacterial challenge, respectively. The data were the average values of 2 individual experiments. PBS was used as a control. […] In general single dose protection studies gave better protection than double dose experiments.

[14] = efflux mutant Nal B, H744, unit from method

## CC1(C)S[C@@H]2[C@H](NC(=O)C(C(=O)O)c3ccccc3)C(=O)N2[C@H]1C(=O)O (some centres unmarked) [Carb, Carbenicillin, reference compound]
[1]; Pseudomonas aeruginosa, read-out: MIC B MIC of Carb
  MIC: 64 µg/mL

## ALWKTMLKKAAHVGKHVGKAALGAAARRRK [DER-M]
[2]
  MIC As: 2 µg/mL
[3]
  MIC Z61: 8 µg/mL
[4]
  MIC K799: 64 µg/mL
[5]
  MIC C610: 0.5 µg/mL
[6]
  MIC C587: 32 µg/mL
[7]
  MIC C621: 32 µg/mL
Vibrio anguillarum (Va)
  MIC Va: >64 µg/mL

## KWKSFIKKLTSAAKKVTTAAKPLTK [CPα1]
E. coli [8]
  MIC E. coli: 1.5 µg/mL
P. aeruginosa
  MIC P. aeruginosa: ≧64 μg/ml
S. aureus K147
  MIC S. aureus K147: >64 µg/mL
S. aureus
  MIC S. aureus: >64 µg/mL
[9]; [14]
  (B) MIC of Nal when combined with peptide: 400 µg/mL
[9]; efflux mutant Nal B, H744
  FIC index: 0.38
  (A) Peptide doses together with Nal: 1 µg/mL
[9]
  MIC A MIC of Peptides: 8 µg/mL
[10]
  (B) MIC of Cipro when combined with peptide: .125 µg/mL
  FIC index: .63
  MIC A MIC of Peptides: 8 µg/mL
  (A) Peptide doses together with Cipro: 1 µg/mL
[1]
  (B) MIC of Carb when combined with peptide: 32 µg/mL
  FIC index: 0.75
  MIC A MIC of Peptides: 16 µg/mL
  (A) Peptide doses together with Carb: 4 µg/mL
[11]
  (B) MIC of Nal when combined with peptide: 800 µg/mL
  FIC index: 0.38
  MIC A MIC of Peptides: 8 µg/mL
  (A) Peptide doses together with Nal: 1 µg/mL
E. coli [12]
  FIC for combination of cationic peptide and lysozyme: 0.31
  Lowest [CP] showing synergy: 0.65 µg/mL
  Lowest [Lyso] showing synergy: 7.8 µg/mL
P. aeruginosa (H103)
  FIC for combination of cationic peptide and lysozyme: 0.28
  Lowest [CP] showing synergy: 5.21 µg/mL
  Lowest [Lyso] showing synergy: 7.8 µg/mL
Salmonella typhi
  FIC for combination of cationic peptide and lysozyme: 0.63
Salmonella typhi; cationic peptide concentration, combined with lysozyme
  Lowest [CP] showing synergy: 41.7 µg/mL
Salmonella typhi; lysozyme concentration, combined with the peptide
  Lowest [Lyso] showing synergy: 125 µg/mL

## O=C(O)c1cn(C2CC2)c2cc(N3CCNCC3)c(F)cc2c1=O [Cipro, ciprofloxacin, reference compound]
[10]; Pseudomonas aeruginosa, read-out: MIC B MIC of Cipro
  MIC: 0.25 µg/mL

## CCn1cc(C(=O)O)c(=O)c2ccc(C)nc21 [Nal, nalidixic acid, reference compound]
[9]; Pseudomonas aeruginosa, read-out: MIC B MIC of Nal
  MIC: 3200 µg/mL
[9]; nalidixic acid alone, efflux mutant Nal B, H744, unit from method
  MIC B MIC of Nal: 3200 µg/mL

## KWKSFIKKLTSAAKKVVTTAKPLISS (H-KWKSFIKKLTSAAKKVVTTAKPLISS-OH) [CP26, reference compound]
[13]; single dose (200 μg per mouse i.p. at 30 min), 16 hr
  Survival post bacterial challenge, surviving mice: 8
[13]; single dose, 24 hr
  Survival post bacterial challenge, surviving mice: 8
[13]; single dose, 41 hr
  Survival post bacterial challenge, surviving mice: 6
[13]; single dose, 48 hr
  Survival post bacterial challenge, surviving mice: 4
[13]; single dose, 64 hr
  Survival post bacterial challenge, surviving mice: 3
  Survival (%) post bacterial challenge: 37%
[13]; single dose, 72 hr
  Survival post bacterial challenge, surviving mice: 3
  Survival (%) post bacterial challenge: 37%
[13]; single dose, 96 hr
  Survival post bacterial challenge, surviving mice: 3
  Survival (%) post bacterial challenge: 37%

## KKWKKFIKKIGIGAVLTTPGAKK [CPα3]
E. coli [8]
  MIC E. coli: 4 µg/mL
P. aeruginosa
  MIC P. aeruginosa: ≧64 μg/ml
S. aureus K147
  MIC S. aureus K147: >64 µg/mL
S. aureus
  MIC S. aureus: >64 µg/mL
[9]; [14]
  (B) MIC of Nal when combined with peptide: 400 µg/mL
[9]; efflux mutant Nal B, H744
  FIC index: 0.50
  (A) Peptide doses together with Nal: 1 µg/mL
[9]
  MIC A MIC of Peptides: 4 µg/mL
[10]
  (B) MIC of Cipro when combined with peptide: .125 µg/mL
  FIC index: .75
  MIC A MIC of Peptides: 4 µg/mL
  (A) Peptide doses together with Cipro: 1 µg/mL
[1]
  (B) MIC of Carb when combined with peptide: 32 µg/mL
  FIC index: 0.75
  MIC A MIC of Peptides: 16 µg/mL
  (A) Peptide doses together with Carb: 4 µg/mL
[11]
  (B) MIC of Nal when combined with peptide: 800 µg/mL
  FIC index: 0.50
  MIC A MIC of Peptides: 8 µg/mL
  (A) Peptide doses together with Nal: 1 µg/mL
E. coli [12]
  FIC for combination of cationic peptide and lysozyme: 0.31
  Lowest [CP] showing synergy: 0.65 µg/mL
  Lowest [Lyso] showing synergy: 62.5 µg/mL
P. aeruginosa (H103)
  FIC for combination of cationic peptide and lysozyme: 0.08
  Lowest [CP] showing synergy: 1.3 µg/mL
  Lowest [Lyso] showing synergy: 7.8 µg/mL
Salmonella typhi
  FIC for combination of cationic peptide and lysozyme: Confluent
